Columns and labels:
Format in all cases: cell-based
[1] = biological target: T1, PPAR-γ (Homo sapiens, UniProt P37231); test: transactivation test of PPAR-type receptors (luciferase reporter, cotransfected HeLa cells), PPAR-γ; details: HeLa cells cotransfected with PPAR-γ expression vector and PPRE-luciferase reporter, 24 hours, n.a. = not active; for AC50: concentration giving 50% of the activity of the reference molecule; for γ Ymax %: relative to Reference 2
T1 construct: expressed in transfected cells; host or cells: HeLa cells
T1 sequence (P37231 1-505): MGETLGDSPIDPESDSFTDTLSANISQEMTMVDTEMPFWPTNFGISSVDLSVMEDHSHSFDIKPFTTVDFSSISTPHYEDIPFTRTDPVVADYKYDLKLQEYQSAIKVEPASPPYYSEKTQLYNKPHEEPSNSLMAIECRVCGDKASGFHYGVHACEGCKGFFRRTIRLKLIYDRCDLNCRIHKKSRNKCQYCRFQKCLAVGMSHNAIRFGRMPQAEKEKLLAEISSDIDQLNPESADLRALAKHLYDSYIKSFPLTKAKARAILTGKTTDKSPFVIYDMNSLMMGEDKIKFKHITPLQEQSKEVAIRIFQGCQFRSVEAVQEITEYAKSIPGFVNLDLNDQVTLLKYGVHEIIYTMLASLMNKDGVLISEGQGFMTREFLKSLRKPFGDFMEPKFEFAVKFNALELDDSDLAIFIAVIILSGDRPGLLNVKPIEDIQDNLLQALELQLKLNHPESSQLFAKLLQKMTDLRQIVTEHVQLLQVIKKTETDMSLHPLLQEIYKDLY
Protocol: (§1) This activity is determined with the aid of a reporter enzyme (luciferase) for the activation due to the compound via one of the PPAR receptors, and more particularly of the PPAR-α type.
(§2) The biological tests carried out corresponded to those described in the application. […] Thus, the activating power via PPAR-α, PPAR-γ or PPAR-δ of molecules was evaluated with a transactivation test in which HeLa cells were cotransfected with an expression vector encoding these receptors and a reporter plasmid containing a PPRE response element cloned upstream of a portion of a promoter of the SV40 virus and of the luciferase gene. The cotransfected cells were treated for 24 hours with the molecules to be tested and the activity of the luciferase was determined by luminescence.

[2] = biological target: T2, PPAR-δ (Homo sapiens, UniProt Q03181); test: transactivation test of PPAR-type receptors (luciferase reporter, cotransfected HeLa cells), PPAR-δ; details: HeLa cells cotransfected with PPAR-δ expression vector and PPRE-luciferase reporter, 24 hours, n.a. = not active; for AC50: concentration giving 50% of the activity of the reference molecule; for δ Ymax %: relative to Reference 2
T2 construct: expressed in transfected cells; host or cells: HeLa cells
T2 sequence (Q03181 1-441): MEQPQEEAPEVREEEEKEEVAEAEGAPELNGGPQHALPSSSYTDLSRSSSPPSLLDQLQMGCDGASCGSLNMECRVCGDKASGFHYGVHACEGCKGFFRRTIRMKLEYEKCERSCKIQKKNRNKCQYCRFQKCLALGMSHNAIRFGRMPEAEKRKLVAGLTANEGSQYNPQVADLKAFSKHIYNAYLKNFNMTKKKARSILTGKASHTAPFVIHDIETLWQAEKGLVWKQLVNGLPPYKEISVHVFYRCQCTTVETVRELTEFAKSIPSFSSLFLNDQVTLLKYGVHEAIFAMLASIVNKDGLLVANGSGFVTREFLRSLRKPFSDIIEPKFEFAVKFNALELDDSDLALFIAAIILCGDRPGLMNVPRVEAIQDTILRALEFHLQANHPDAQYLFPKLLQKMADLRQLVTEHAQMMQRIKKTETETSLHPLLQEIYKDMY
Protocol: as §1, §2

[3] = biological target: T3, PPAR-α (Homo sapiens, UniProt Q07869); test: transactivation test of PPAR-type receptors (luciferase reporter, cotransfected HeLa cells), PPAR-α; details: HeLa cells cotransfected with PPAR-α expression vector and PPRE-luciferase reporter, 24 hours, n.a. = not active; for AC50: concentration giving 50% of the activity of the reference molecule; for α Ymax %: relative to Reference 1
T3 construct: expressed in transfected cells; host or cells: HeLa cells
T3 sequence (Q07869 1-468): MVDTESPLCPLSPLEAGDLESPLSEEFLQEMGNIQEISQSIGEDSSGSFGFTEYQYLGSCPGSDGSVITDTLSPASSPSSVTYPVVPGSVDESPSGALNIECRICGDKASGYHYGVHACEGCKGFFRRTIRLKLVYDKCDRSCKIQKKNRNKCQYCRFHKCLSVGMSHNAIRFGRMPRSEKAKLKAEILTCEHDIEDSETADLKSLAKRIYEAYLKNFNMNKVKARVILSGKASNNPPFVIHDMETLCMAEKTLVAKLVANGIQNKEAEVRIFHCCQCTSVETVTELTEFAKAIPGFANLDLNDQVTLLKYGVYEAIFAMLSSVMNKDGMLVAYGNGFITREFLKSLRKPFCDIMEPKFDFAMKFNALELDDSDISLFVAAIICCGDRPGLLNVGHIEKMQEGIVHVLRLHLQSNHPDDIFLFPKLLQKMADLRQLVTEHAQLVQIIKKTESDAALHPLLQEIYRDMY
Protocol: as §1, §2

Row | AC50 [1] [µM] | γ Ymax % [1] [%] | AC50 [2] [µM] | δ Ymax % [2] [%] | AC50 [3] [µM] | α Ymax % [3] [%] | Compound
1 | 3 | 83 | 7 | 125 | 4 | 128 | CCCCCC#CCC#CCC#CCC#CCSCC(=O)O [Comparative Example 1, 3-thia-5,8,11,14-eicosatetraynoic acid]
2 | 4 | 58 | 11 | 74 | 5 | 112 | CCCCCCCCC#CCC#CCC#CCSCC(=O)O [Comparative Example 2, 3-thia-5,8,11-eicosatriynoic acid]
3 |  |  |  |  | 2.9 | 91 | CCCCCCCCSCC#CCSCC(=O)O [Example 8, 3,8-Dithia-5-hexadecynoic Acid]
4 |  |  |  |  | 1.5 | 142 | CCCCCCCCCCC#CCSCC(=O)O [Example 10, 3-Thia-5-hexadecynoic Acid]
5 |  |  |  |  | 1 | 116 | CCCCCCCCC#CCC#CCSCC(=O)O [Example 14, 3-Thia-5,8-heptadecadiynoic Acid]
6 |  |  |  |  | 3 | 138 | CCCCCC#CCC#CCC#CCSCC(=O)O [Example 21, 3-Thia-5,8,11-heptadecatriynoic Acid]
7 |  |  |  |  |  | 100 | Cc1cccc(Nc2cc(Cl)nc(SCC(=O)O)n2)c1C [Reference 1, [4-chloro-6-(2,3-dimethylphenylamino)pyrimidin-2-ylsulfanyl]acetic acid]
